Experimental data: PubChem BioAssay AID248 (DTP/NCI, 2004)
Where “and” joins values, the source holds several entries; their conditions need not be identical. Identical values can stand only once. Toxic doses and inconclusive results are not listed. Rule as the data show it: active = T/C of 150% or more; inactive = T/C below 125%.

Test system: L1210 leukemia ip in BDF1 mice, survival T/C
Experiment: NCI In Vivo Anticancer Drug Screen. Data for tumor model L1210 Leukemia (intraperitoneal) in B6D2F1 (BDF1) mice
Conditions: endpoint: mean survival time, higher = longer survival
In short: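 In this screen, tumor-bearing mice given compound are compared to those given vehicle, and their survival values are reported as a treated-to-control quotient.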

[1] = dose: 50.0 mg/kg/injection, schedule: Q01DX009 (ip), vehicle: Klucel (hydroxypropylcellulose) (HPC)
[2] = dose: 100.0 mg/kg/injection, schedule: Q01DX009 (ip), vehicle: Klucel (hydroxypropylcellulose) (HPC)
[3] = dose: 100.0 mg/kg/injection, schedule: Q04DX003 (ip), vehicle: Klucel (hydroxypropylcellulose) (HPC)
[4] = dose: 200.0 mg/kg/injection, schedule: Q01DX009 (ip), vehicle: Klucel (hydroxypropylcellulose) (HPC)
[5] = dose: 200.0 mg/kg/injection, schedule: Q04DX003 (ip), vehicle: Klucel (hydroxypropylcellulose) (HPC)
[6] = dose: 100.0 mg/kg/injection, schedule: Q01DX009 (ip), vehicle: saline with Tween-80
[7] = dose: 100.0 mg/kg/injection, schedule: Q04DX003 (ip), vehicle: saline with Tween-80
[8] = dose: 200.0 mg/kg/injection, schedule: Q01DX009 (ip), vehicle: saline with Tween-80
[9] = dose: 200.0 mg/kg/injection, schedule: Q04DX003 (ip), vehicle: saline with Tween-80
[10] = dose: 400.0 mg/kg/injection, schedule: Q01DX009 (ip), vehicle: saline with Tween-80
[11] = dose: 400.0 mg/kg/injection, schedule: Q04DX003 (ip), vehicle: saline with Tween-80
[12] = dose: 400.0 mg/kg/injection, schedule: Q04DX003 (ip), vehicle: Klucel (hydroxypropylcellulose) (HPC)
[13] = dose: 100.0 mg/kg/injection, schedule: Q01DX001 (ip), vehicle: saline
[14] = dose: 200.0 mg/kg/injection, schedule: Q01DX001 (ip), vehicle: saline
[15] = dose: 400.0 mg/kg/injection, schedule: Q01DX001 (ip), vehicle: saline

Measured: T/C

CCOC(=O)c1ccc(N=CNc2ccc(C(=O)OCC)cc2)cc1
inactive: dose: 12.5 mg/kg/injection, schedule: Q01DX001 (ip), vehicle: other 106 % of control | dose: 12.5 mg/kg/injection, schedule: Q01DX009 (ip), vehicle: saline with Tween-80 100 % of control | dose: 12.5 mg/kg/injection, schedule: Q04DX003 (ip), vehicle: saline with Tween-80 96 % of control | dose: 25.0 mg/kg/injection, schedule: Q01DX001 (ip), vehicle: other 95 % of control | dose: 25.0 mg/kg/injection, schedule: Q01DX009 (ip), vehicle: saline with Tween-80 93 % of control | dose: 25.0 mg/kg/injection, schedule: Q04DX003 (ip), vehicle: saline with Tween-80 95 % of control | dose: 50.0 mg/kg/injection, schedule: Q01DX001 (ip), vehicle: other 93 % of control | dose: 50.0 mg/kg/injection, schedule: Q01DX009 (ip), vehicle: saline with Tween-80 96 % of control | dose: 50.0 mg/kg/injection, schedule: Q04DX003 (ip), vehicle: saline with Tween-80 95 % of control

CNc1ccc(C(=O)O)cc1
inactive: dose: 50.0 mg/kg/injection, schedule: Q01DX009 (ip), vehicle: saline 102 % of control | dose: 100.0 mg/kg/injection, schedule: Q01DX009 (ip), vehicle: saline 109 % of control | dose: 200.0 mg/kg/injection, schedule: Q01DX009 (ip), vehicle: saline 106 % of control

Cc1ccc(-n2c(O)c(N=Nc3ccc(Br)cc3)c(=O)n(-c3ccccc3)c2=S)cc1
inactive: dose: 50.0 mg/kg/injection, schedule: Q01DX001 (ip), vehicle: Klucel (hydroxypropylcellulose) (HPC) 97 % of control | dose: 100.0 mg/kg/injection, schedule: Q01DX001 (ip), vehicle: Klucel (hydroxypropylcellulose) (HPC) 111 % of control | dose: 200.0 mg/kg/injection, schedule: Q01DX001 (ip), vehicle: Klucel (hydroxypropylcellulose) (HPC) 94 % of control

Oc1ccc(C2CCCCC2)c(O)c1
inactive: [1] 96 % of control | dose: 50.0 mg/kg/injection, schedule: Q04DX003 (ip), vehicle: Klucel (hydroxypropylcellulose) (HPC) 101 % of control | [2] 96 % of control | [3] 98 % of control | [4] 100 % of control | [5] 103 % of control

COC(=O)/C=C1\C(C(=O)OC)=Cc2ccccc2N1C
inactive: [6] 97 % of control | [7] 98 % of control | [8] 91 % of control | [9] 98 % of control | [10] 94 % of control | [11] 96 % of control

CC(C)(C)NC/C(=C\c1ccccc1)C(=O)c1ccccc1
inactive: dose: 5.0 mg/kg/injection, schedule: Q01DX001 (ip), vehicle: saline 98 % of control | dose: 10.0 mg/kg/injection, schedule: Q01DX001 (ip), vehicle: saline 101 % of control | dose: 20.0 mg/kg/injection, schedule: Q01DX001 (ip), vehicle: saline 98 % of control | dose: 25.0 mg/kg/injection, schedule: Q01DX009 (ip), vehicle: Klucel (hydroxypropylcellulose) (HPC) 100 % of control | dose: 40.0 mg/kg/injection, schedule: Q01DX001 (ip), vehicle: saline 93 % of control | [1] 98 % of control | dose: 80.0 mg/kg/injection, schedule: Q01DX001 (ip), vehicle: saline 95 % of control | [2] 95 % of control | [3] 94 % of control | [7] 112 % of control | [5] 91 % of control | [12] 96 % of control

CN(C)c1cc(O)ccc1[N+](=O)[O-]
inactive: dose: 100.0 mg/kg/injection, schedule: Q04DX003 (ip), vehicle: saline 103 % of control | dose: 200.0 mg/kg/injection, schedule: Q04DX003 (ip), vehicle: saline 95 % of control | dose: 400.0 mg/kg/injection, schedule: Q04DX003 (ip), vehicle: saline 100 % of control

O=Cc1c2ccccc2cc2ccccc12
inactive: dose: 9.5 mg/kg/injection, schedule: Q01DX015 (ip), vehicle: saline 96 % of control | dose: 9.5 mg/kg/injection, schedule: Q## X015 (ip), vehicle: saline 94 % of control | dose: 9.7 mg/kg/injection, schedule: Q01DX015 (ip), vehicle: other 97 % of control | dose: 16.2 mg/kg/injection, schedule: Q01DX015 (ip), vehicle: other 107 % of control | dose: 16.2 mg/kg/injection, schedule: Q## X015 (ip), vehicle: saline 94 % of control | dose: 27.0 mg/kg/injection, schedule: Q01DX015 (ip), vehicle: other 104 % of control | dose: 27.0 mg/kg/injection, schedule: Q## X015 (ip), vehicle: saline 96 % of control | dose: 45.0 mg/kg/injection, schedule: Q01DX015 (ip), vehicle: other 91 % of control | dose: 45.0 mg/kg/injection, schedule: Q01DX015 (ip), vehicle: saline 96 % of control and 109 % of control | dose: 45.0 mg/kg/injection, schedule: Q## X015 (ip), vehicle: saline 94 % of control | dose: 50.0 mg/kg/injection, schedule: Q01DX001 (ip), vehicle: saline 95 % of control and 100 % of control and 103 % of control | [13] 97 % of control and 100 % of control and 103 % of control | [14] 101 % of control | [15] 97 % of control and 101 % of control and 114 % of control | dose: 800.0 mg/kg/injection, schedule: Q01DX001 (ip), vehicle: saline 100 % of control

CC(=O)ONc1nc(C)c(CCC2OCCO2)c(=O)[nH]1
inactive: [2] 95 % of control | [3] 105 % of control | [4] 102 % of control | [5] 105 % of control | dose: 400.0 mg/kg/injection, schedule: Q01DX009 (ip), vehicle: Klucel (hydroxypropylcellulose) (HPC) 95 % of control | [12] 98 % of control

CC(Nc1ccccc1)(C(N)=O)c1ccccc1 (stereo not drawn)
inactive: dose: 100.0 mg/kg/injection, schedule: Q01DX001 (ip), vehicle: saline sonified 96 % of control | dose: 200.0 mg/kg/injection, schedule: Q01DX001 (ip), vehicle: saline sonified 100 % of control | dose: 400.0 mg/kg/injection, schedule: Q01DX001 (ip), vehicle: saline sonified 97 % of control

CCOC(=O)CN=C(C)OCC
inactive: [6] 100 % of control | [7] 107 % of control | [8] 99 % of control | [9] 97 % of control | [10] 90 % of control | [11] 103 % of control

O=S(NOCc1ccccc1)c1ccccc1 (stereo not drawn)
inactive: dose: 100.0 mg/kg/injection, schedule: Q04DX002 (ip), vehicle: Klucel (hydroxypropylcellulose) (HPC) 107 % of control | dose: 200.0 mg/kg/injection, schedule: Q04DX002 (ip), vehicle: Klucel (hydroxypropylcellulose) (HPC) 107 % of control | dose: 400.0 mg/kg/injection, schedule: Q04DX002 (ip), vehicle: Klucel (hydroxypropylcellulose) (HPC) 111 % of control

NC(N)=NNO
inactive: [13] 88 % of control | [14] 95 % of control | [15] 101 % of control

CN(C)C=Nc1ncnc2nc[nH]c12
inactive: dose: 100.0 mg/kg/injection, schedule: Q04DX002 (ip), vehicle: saline with Tween-80 102 % of control | dose: 200.0 mg/kg/injection, schedule: Q04DX002 (ip), vehicle: saline with Tween-80 102 % of control | dose: 400.0 mg/kg/injection, schedule: Q04DX002 (ip), vehicle: saline with Tween-80 109 % of control

COC(=O)C(CSC(c1ccc(N(C)C)cc1)c1ccc(N(C)C)cc1)NC(=O)OCc1ccccc1 (stereo not drawn)
inactive: dose: 75.0 mg/kg/injection, schedule: Q01DX001 (ip), vehicle: carboxymethylcellulose (CMC) 97 % of control | dose: 300.0 mg/kg/injection, schedule: Q01DX001 (ip), vehicle: carboxymethylcellulose (CMC) 94 % of control
